Data as given in patent US5622948A, “Pyrrole pyridazine and pyridazinone anti-inflammatory agents” (Syntex (U.S.A.) Inc., priority 1994, dated 1997).

Legend:
[1] = target: COX I (Homo sapiens, UniProt P23219); assay: radiometric assay, COX I inhibition (human recombinant, baculovirus expressed, partially purified); assay type: biochemical; parameters: A 2 Kb fragment containing the coding region of COX I; made in house; host or cells: Sf9 insect cells, baculovirus (cDNA from Oxford Biomedical Research); conditions: radiometric assay, human recombinant baculovirus expressed enzyme; read-out: COX I IC50 (Table 2)
Sequence of COX I (P23219 24-599): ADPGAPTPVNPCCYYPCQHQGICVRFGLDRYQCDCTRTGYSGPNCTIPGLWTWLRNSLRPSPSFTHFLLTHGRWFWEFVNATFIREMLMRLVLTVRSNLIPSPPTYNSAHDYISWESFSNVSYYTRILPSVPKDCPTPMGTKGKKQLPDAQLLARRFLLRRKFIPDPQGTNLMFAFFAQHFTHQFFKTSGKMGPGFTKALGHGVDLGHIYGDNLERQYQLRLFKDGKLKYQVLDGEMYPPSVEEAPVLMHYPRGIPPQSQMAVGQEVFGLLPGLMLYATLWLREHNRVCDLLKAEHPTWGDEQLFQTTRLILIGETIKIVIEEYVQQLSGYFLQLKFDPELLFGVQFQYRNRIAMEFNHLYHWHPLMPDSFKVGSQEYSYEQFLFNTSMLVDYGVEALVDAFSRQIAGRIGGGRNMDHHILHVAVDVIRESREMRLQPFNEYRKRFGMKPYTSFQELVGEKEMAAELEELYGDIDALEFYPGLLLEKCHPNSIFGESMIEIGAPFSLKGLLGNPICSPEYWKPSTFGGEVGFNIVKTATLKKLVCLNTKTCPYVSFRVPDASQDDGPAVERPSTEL
Experimental: (§1) Human prostaglandin G/H synthase I and II ("COX I" and "COX II") were expressed in the baculovirus expression system and purified to high levels.
(§2) As described above, human recombinant COX I and COX II were cloned and expressed in a baculovirus system. Partially purified COX I and COX II enzymes were used for screening compounds for their ability to inhibit COX I and COX II activity, as described below.
(§3) Compound (16), in 2 μl DMSO, and control samples (carrier vehicles only) were mixed with COX I or COX II samples (e.g. fractions from the chromatography columns) in polypropylene tubes and preincubated with 2 mM phenol for 5 minutes and then with 1 μM hematin for an additional 5 minutes. The 150 μl reaction mixture consisted of 50 mM Tris --HCl, pH 7.9, 2 mM EDTA, 10% glycerol, 200 μM phenol, 1 μM hematin, 1-25 μl sample and 20 μM 1-[^14 C] arachidonate (80.000-100.000 cpm/tube). After 45 seconds at room temperature, the reaction was terminated by adding 200 μl of 2N HCl and 750 μl water. An aliquot (950 μl) of the reaction mixture was loaded onto a 1 ml C~ Sep-Pak (J. T. Baker, Phillipsburg, N.J.) which had been previously washed with 2-3 ml methanol and equilibrated with 5-6 ml distilled water. Oxygenated products were quantitatively eluted with 3 ml of acetonitrile, H2 O and acetic acid (50:50:0.1, v/v) and the radioactivity in the eluate determined in a scintillation counter.
(§4) Human recombinant 10 min incubation with Compound (16)
(§5) baculovirus 45 sec incubation with 20 μM AA
(§6) partially purified Separation of radioactive products

[2] = target: T1, COX II (Homo sapiens, UniProt P35354); assay: radiometric assay, COX II inhibition (human recombinant, baculovirus expressed, partially purified); assay type: biochemical; parameters: A 1.8 Kb DNA fragment containing the coding region of human COX II was generated by PCR; made in house; host or cells: Sf9 insect cells, baculovirus; conditions: radiometric assay, human recombinant baculovirus expressed enzyme; read-out: COX II IC50 (Table 2)
T1 sequence (P35354 18-604): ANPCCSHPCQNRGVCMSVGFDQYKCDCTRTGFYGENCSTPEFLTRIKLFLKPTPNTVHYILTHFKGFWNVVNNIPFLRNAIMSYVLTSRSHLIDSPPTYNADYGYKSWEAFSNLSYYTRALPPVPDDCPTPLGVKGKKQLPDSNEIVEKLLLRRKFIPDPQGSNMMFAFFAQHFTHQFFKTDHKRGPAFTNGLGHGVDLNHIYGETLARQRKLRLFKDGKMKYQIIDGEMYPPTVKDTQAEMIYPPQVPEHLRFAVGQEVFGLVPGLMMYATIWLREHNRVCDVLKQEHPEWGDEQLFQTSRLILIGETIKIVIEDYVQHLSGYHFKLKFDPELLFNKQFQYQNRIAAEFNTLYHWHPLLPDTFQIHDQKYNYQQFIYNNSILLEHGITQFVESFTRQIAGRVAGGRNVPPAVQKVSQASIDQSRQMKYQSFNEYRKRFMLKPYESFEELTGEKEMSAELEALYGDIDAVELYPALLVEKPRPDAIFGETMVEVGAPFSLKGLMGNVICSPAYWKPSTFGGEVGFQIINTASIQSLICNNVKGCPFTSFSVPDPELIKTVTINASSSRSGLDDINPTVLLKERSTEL
Experimental: as §1, §2, §3, §4, §5, §6

[3] = physical stability / phase transformation of crystal forms of Compound (16); assay type: physicochemical; conditions: for conversion when suspended in alcohol or ethyl acetate: suspended in alcohol (Phase II: alcohol or ethyl acetate)
Description: Phase I was obtained when Compound (16) was recrystallized from methanol, ethanol, ethanol/acetic acid, acetone, ethyl acetate, ethyl acetate/acetic acid, dichloromethane, tetrahydrofuran or tetrahydrofuran/ethyl acetate.
Phase II was obtained when Compound (16) was recrystallized from toluene.
Phase III was obtained by rapid precipitation of Compound (16) from acetic acid/water.
Hydrate I, a monohydrate, was also obtained by slow recrystallization of Compound (16) from acetic acid/water.

[4] = tested on: stomach PGE2; assay type: in vivo, rat; conditions: 2-5 mg/kg
Experimental: To examine the effect of Compound (16) on prostaglandin (PG) synthesis in inflamed tissues, Compound (16) was tested in a carrageenan-induced inflammation (air-pouch model) in rats. PGE2 levels in the air-pouch exudate were measured by enzyme immunoassay in rats treated with 0.1-30 mg/kg of Compound (16). […] […].
To test the effects of Compound (16) on PG synthesis in non-inflamed tissue, PGE2 levels were measured in the stomach of rats from the above experiments. […]

[5] = tested on: adjuvant-induced arthritis; assay: adjuvant-induced arthritis in the rat; assay type: in vivo; conditions: second test
[6] = tested on: stomach and intestines; conditions: general statement (background); cited from earlier work
[7] = tested on: PGE2 levels in the air-pouch exudate; assay: PGE2 in exudate of carrageenan-induced inflammation (air-pouch model) in rats; assay type: in vivo, rat; conditions: 2-5 mg/kg

SMILES | IC50 [1] | IC50 [2] | conversion when suspended in alcohol or ethyl acetate [3] | conversion when suspended in water [3] | other results
Cc1cc(Cc2ccc(=O)[nH]n2)n(C)c1C(=O)c1ccc(Cl)cc1 [Hydrate I] |  |  | can be converted back to Phase I |  | physical stability, duration ([3]; 40° C./75% relative humidity): 14 days; physical stability ([3]; 40° C./ambient relative humidity, within 11-95% relative humidity): physically stable; conversion on heating at 120° C. ([3]; 120° C.): phase conversion to another anhydrous crystal form; dehydration at temperatures below 100° C. ([3]; below 100° C., ambient conditions and 23% relative humidity): produced a metastable form that converted back to Hydrate I
Cc1cc(Cc2ccc(=O)[nH]n2)n(C)c1C(=O)c1ccc(Cl)cc1 [Phase III] |  |  | converted to Phase I | converted to Hydrate I | 
Cc1cc(Cc2ccc(=O)[nH]n2)n(C)c1C(=O)c1ccc(Cl)cc1 [Phase II] |  |  | converted to Phase I | converted to another hydrate, Hydrate II | 
Cc1cc(Cc2ccc(=O)[nH]n2)n(C)c1C(=O)c1ccc(Cl)cc1 [Phase I] |  |  |  | converted to a monohydrate, Hydrate I | phase transformation on milling and micronization ([3]; milling and micronization): did not cause any phase transformation; physically stable for ([3]; unmilled (-200 μm), 40° C./75% relative humidity): at least 4 days
COc1ccc2c(c1)c(CC(=O)O)c(C)n2C(=O)c1ccc(Cl)cc1 [indomethacin, reference compound] |  |  |  |  | inhibition of stomach PGE2 [4]: > 80%; inhibition of adjuvant-induced arthritis ([5]; 0.3 mg/kg/day): 66%; inhibition of adjuvant-induced arthritis ([5]; 0.6 mg/kg/day): 79%; corrosiveness to the stomach and intestines of rats [6]: highly corrosive to the stomach and intestines of rats; inhibition of PGE2 in the exudates [7]: > 70%

Now from value to compound, other results behind:

IC50 [1] | IC50 [2] | SMILES | conversion when suspended in alcohol or ethyl acetate [3] | conversion when suspended in water [3] | other results
> 100 µM | 0.54 µM | Cc1cc(Cc2ccc(=O)n(CO)n2)n(C)c1C(=O)c1ccc(Cl)cc1 [Compound 153, 6-[5-(4-chloro-benzoyl)-1,4,-dimethyl-1H-pyrrol-2-ylmethyl]-2-(hydroxy-methyl)-2H-pyridazin-3-one] |  |  | 
24.4 µM | 1.63 µM | CC[C@H](C)NC(=O)Cn1nc(Cc2cc(C)c(C(=O)c3ccc(Cl)cc3)n2C)ccc1=O [Compound 157, S--N-sec-butyl-2-{3-[5-(4-chloro-benzoyl)-1,4,-dimethyl-1H-pyrrol-2-ylmethyl]-6-oxo-6H-pyridazin-1-yl}-acetamide] |  |  | 
3.2 µM | 0.68 µM | CC[C@@H](C)NC(=O)Cn1nc(Cc2cc(C)c(C(=O)c3ccc(Cl)cc3)n2C)ccc1=O [Compound 158, R--N-sec-butyl-2-{3-[5-(4-chloro-benzoyl)-1,4,-dimethyl-1H-pyrrol-2-ylmethyl]-6-oxo-6H-pyridazin-1-yl}-acetamide] |  |  | 
64.7 µM | 0.61 µM | CC(=O)OCn1nc(Cc2cc(C)c(C(=O)c3ccc(Cl)cc3)n2C)ccc1=O [Compound 161, acetic acid 2-{3-[5-(4-chloro-benzoyl)-1,4,-dimethyl-1H-pyrrol-2-ylmethyl]-6-oxo-6H-pyridazin-1-yl}-methyl ester] |  |  | 
7.9 µM | 0.91 µM | COc1ccc(Cn2nc(Cc3cc(C)c(C(=O)c4ccc(Cl)cc4)n3C)ccc2=O)cc1 [Compound 168, 6-[5-(4-chloro-benzoyl)-1,4,-dimethyl-1H-pyrrol-2-ylmethyl]-2-(4-methoxybenzyl)-2H-pyridazin-3-one] |  |  | 
